Laboratory results reported in ChEMBL document CHEMBL1159178, “The use of a proline ring as a conformational restraint in CCK-B receptor dipeptoids” (Bioorg Med Chem Lett, 1992).

Assays:
[1] = target: T1, Cholecystokinin receptor type A (Rattus norvegicus, UniProt P30551); assay: Evaluated for in vitro binding affinity to cholecystokinin-A (CCK-A) receptor in homogenized rat pancreas using [125I]bolton hunter CCK-26-33 as radioligand; 770-2020
T1 sequence (P30551 whole entry): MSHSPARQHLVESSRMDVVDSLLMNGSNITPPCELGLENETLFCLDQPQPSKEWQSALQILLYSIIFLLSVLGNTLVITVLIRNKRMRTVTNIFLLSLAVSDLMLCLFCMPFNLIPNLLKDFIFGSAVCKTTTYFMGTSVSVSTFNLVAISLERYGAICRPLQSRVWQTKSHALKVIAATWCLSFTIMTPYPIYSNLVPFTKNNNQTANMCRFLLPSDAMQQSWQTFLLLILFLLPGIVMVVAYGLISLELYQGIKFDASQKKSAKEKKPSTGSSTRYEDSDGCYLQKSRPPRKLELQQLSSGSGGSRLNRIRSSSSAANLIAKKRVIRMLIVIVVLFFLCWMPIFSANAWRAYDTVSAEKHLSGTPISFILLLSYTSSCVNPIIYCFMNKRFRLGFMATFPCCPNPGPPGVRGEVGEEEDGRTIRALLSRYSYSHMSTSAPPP

[2] = target: T2, Gastrin/cholecystokinin type B receptor (Mus musculus, UniProt P56481); assay: Evaluated for in vitro binding affinity towards cholecystokinin-B (CCK-B) receptor in mouse cerebral cortex using [125I]bolton hunter CCK-26-33 as radioligand; 365-1590; type: tissue-based
T2 sequence (P56481 whole entry): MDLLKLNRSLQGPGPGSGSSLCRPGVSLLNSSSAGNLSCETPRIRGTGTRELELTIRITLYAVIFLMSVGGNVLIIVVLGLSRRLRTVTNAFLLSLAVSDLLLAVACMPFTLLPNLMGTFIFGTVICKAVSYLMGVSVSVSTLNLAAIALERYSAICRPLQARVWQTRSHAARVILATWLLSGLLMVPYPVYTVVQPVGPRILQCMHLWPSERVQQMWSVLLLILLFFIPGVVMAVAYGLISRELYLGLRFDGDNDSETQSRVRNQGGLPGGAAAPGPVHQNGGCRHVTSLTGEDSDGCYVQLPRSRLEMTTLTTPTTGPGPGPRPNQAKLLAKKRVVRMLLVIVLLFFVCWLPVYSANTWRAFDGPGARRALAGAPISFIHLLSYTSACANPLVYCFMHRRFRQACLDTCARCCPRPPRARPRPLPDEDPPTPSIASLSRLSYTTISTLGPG

[3] = target: T2, Gastrin/cholecystokinin type B receptor; assay: Evaluated for in vitro binding affinity towards cholecystokinin-B (CCK-B) receptor in mouse cerebral cortex using [125I]bolton hunter CCK-26-33 as radioligand; 4.2-8.9; type: tissue-based
[4] = target: T1, Cholecystokinin receptor type A; assay: Evaluated for in vitro binding affinity to cholecystokinin-A (CCK-A) receptor in homogenized rat pancreas using [125I]bolton hunter CCK-26-33 as radioligand; 690-850
[5] = target: T2, Gastrin/cholecystokinin type B receptor; assay: Evaluated for in vitro binding affinity towards cholecystokinin-B (CCK-B) receptor in mouse cerebral cortex using [125I]bolton hunter CCK-26-33 as radioligand; 1790-2700; type: tissue-based
[6] = target: T1, Cholecystokinin receptor type A; assay: Evaluated for in vitro binding affinity to cholecystokinin-A (CCK-A) receptor in homogenized rat pancreas using [125I]bolton hunter CCK-26-33 as radioligand; 743-1710

CC(Cc1c[nH]c2ccccc12)(NC(=O)OC1C2CC3CC(C2)CC1C3)C(=O)NC(CO)Cc1ccccc1 (stereo unspecified)
IC50 [1]: 1080 nM
IC50 [2]: 852 nM

O=C(NC(Cc1c[nH]c2ccccc12)C(=O)NC(CO)Cc1ccccc1)OC1C2CC3CC(C2)CC1C3 (stereo unspecified)
IC50 [3]: 6.3 nM
IC50 [4]: 780 nM

O=C(OC1C2CC3CC(C2)CC1C3)N1CCCC1(Cc1c[nH]c2ccccc12)C(=O)NC(CO)Cc1ccccc1 (stereo unspecified)
IC50 [5]: 2080 nM
IC50 [6]: 1050 nM
